Measured values published in publication PMC12210912, “Pharmacologic properties and inhibitory activity of 6-azasteroids against Mycobacterium leprae in vivo and in vitro” (Microbiology Spectrum, 2025).

Assays:
[1] = system: human type 2 5α-reductase; parameters: method as in PMID 8057283; conditions: cited from earlier work
[2] = system: human type 1 5α-reductase; parameters: method as in PMID 8057283; conditions: cited from earlier work
[3] = compound plasma concentration in Balb/c mice by LC-MS; assay type: in vivo; conditions: 50 mg/kg; for plasma level at the end of the experiment with infected mice: Balb/c mice, 6 h after last dose, alone or with rifampicin
Protocol: Animal experimentation was conducted under approval by the ILSL ethical committee (CEUA ILSL 02/19). Balb/c female mice with 8-week-old were inoculated with 5 × 10^3 live M. leprae bacilli, strain Thai-53, in both hind footpads, as previously described for the Shepard’s model ([25]). Eight groups were tested in the experiment: (i) M. leprae control group (n = 5) inoculated with M. leprae and no additional treatment; (ii) vehicle control group (n = 4) inoculated with M. leprae and treatment with vehicle of the drugs; (iii) regular rifampicin treatment, 10 mg/Kg dose; (iv) sub-inhibitory rifampicin, 1 mg/kg dose (n = 5); (v) compound 2 treatment (n = 4), 50 mg/kg dose; (vi) compound 2 with sub-inhibitory rifampicin (n = 5), 50 mg/kg dose of compound 2 and 1 mg/kg dose of rifampicin; (vii) compound 5 treatment (n = 5), 50 mg/kg dose; and (viii) compound 5 with sub-inhibitory rifampicin (n = 5), 50 mg/kg dose of compound 5 and 1 mg/kg dose of rifampicin. One month after inoculation, mice from the control group were euthanized and the hind footpad was collected to assess the establishment of the infection by bacillary enumeration. At that time point, vehicle or drug treatment was started for the remaining groups. All compounds were administrated by gavage, rifampicin was administered weekly, and the compounds were administered daily (excluding weekends) for 1 month (20 doses). Mice were euthanized 6 h after administration of the last dose, and blood was collected in heparin-coated tubes by cardiac puncture for blood enzyme evaluation and compound 5 measurement by LC/MS in the plasma. The infected hind footpads from each group of mice were excised, homogenized and bacilli enumerated in a 100 µL aliquot as previously described ([26]). […]
Uninfected Balb/c female mice (n = 36), approximately 8 weeks old and 20 g, were divided into three groups. […] Concentrations of compound 5 in plasma were determined by LC/MS.
Compound 5 quantification in the plasma was performed on lipid extracts from plasma samples. […]

Androgen Receptor = molecular target: T1, Androgen Receptor (Homo sapiens, UniProt P10275, T878A); assay: androgen receptor radioligand binding inhibition; conditions: [3H]methyltrienolone binding, LNCaP cells cytosol
T1 construct: (ii) AR (human) LNCaP cells (cytosol); host or cells: LNCaP cells (cytosol)
T1 sequence (P10275 1-920 T878A): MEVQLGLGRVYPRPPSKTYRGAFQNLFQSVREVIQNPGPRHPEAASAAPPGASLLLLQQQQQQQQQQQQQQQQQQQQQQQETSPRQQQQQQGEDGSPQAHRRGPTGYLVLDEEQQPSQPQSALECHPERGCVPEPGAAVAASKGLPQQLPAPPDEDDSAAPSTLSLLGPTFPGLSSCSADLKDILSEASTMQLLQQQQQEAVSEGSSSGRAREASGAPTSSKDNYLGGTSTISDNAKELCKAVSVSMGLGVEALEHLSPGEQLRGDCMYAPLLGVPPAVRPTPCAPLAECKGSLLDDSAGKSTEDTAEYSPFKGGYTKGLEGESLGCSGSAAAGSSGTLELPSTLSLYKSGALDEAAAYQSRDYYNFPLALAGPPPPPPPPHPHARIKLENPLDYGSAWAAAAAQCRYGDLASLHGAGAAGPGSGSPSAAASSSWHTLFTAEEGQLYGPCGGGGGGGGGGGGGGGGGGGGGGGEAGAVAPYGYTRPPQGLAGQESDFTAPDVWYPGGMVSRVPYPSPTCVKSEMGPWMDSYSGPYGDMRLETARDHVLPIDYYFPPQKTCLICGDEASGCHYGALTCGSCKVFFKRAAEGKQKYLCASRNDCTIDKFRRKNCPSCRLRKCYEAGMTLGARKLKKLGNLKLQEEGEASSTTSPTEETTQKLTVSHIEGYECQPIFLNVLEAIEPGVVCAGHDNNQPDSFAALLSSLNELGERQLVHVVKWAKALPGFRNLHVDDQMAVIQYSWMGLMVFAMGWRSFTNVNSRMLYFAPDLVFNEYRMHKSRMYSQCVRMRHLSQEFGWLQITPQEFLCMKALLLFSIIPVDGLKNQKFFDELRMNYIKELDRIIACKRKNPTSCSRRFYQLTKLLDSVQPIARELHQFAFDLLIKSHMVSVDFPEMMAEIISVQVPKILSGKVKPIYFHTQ
Protocol: Four nuclear receptors: glucocorticoid, androgen, LXRα, and LXRβ were assayed. Inhibition of agonist binding to each of the receptors was carried out following a standard protocol by Eurofins, Inc., USA. Compounds were tested at 10 µM. Compound binding was measured by scintillation counting and was calculated as a % inhibition of the binding of a radioactively labeled ligand specific for each target. Percent inhibition of control specific binding was expressed as
100−[(measured specific binding)/(control specific binding)∗100]
where measured specific binding is the amount of radioactive ligand binding obtained in the presence of test compounds.
(iii) LXRα (human) recombinant protein expressed in E. coli; agonist radioligand 20 nM [^3H] […] (iv) LXRβ (human) recombinant protein expressed in E. coli; agonist radioligand 20 nM [^3H]

SMILES | inhibition of human type 2 5α-reductase [1] | inhibition of human type 1 5α-reductase [2] | plasma level at the end of the experiment with infected mice [3] | plasma levels over 4 weeks, alone vs in combination with rifampicin ([3]; non-infected Balb/c mice, rifampicin 1 mg/kg, weekly time points) | % inhibition observed, Androgen Receptor (Androgen Receptor; 10 µM) | inhibition at 10 µM (Androgen Receptor; read-out: % inhibition observed, Androgen Receptor) [%]
C[C@]12CCC3C(CNC4=CC(=O)CC[C@@]43C)C1CCC2C(=O)NC(c1ccc(F)cc1)c1ccc(F)cc1 (stereo partly shown) [Compound 5] | nanomolar inhibitor | nanomolar inhibitor | detectable levels | no significant differences | low binding | 9.1
CCCN1CC2C3CCC(C(=O)Nc4cc(C(C)(C)C)ccc4C(C)(C)C)[C@@]3(C)CCC2[C@@]2(C)CCC(=O)C=C12 (stereo partly shown) [Compound 2] |  |  | detectable levels |  |  | 
